Results reported in US7476676B2, “Methods for increasing bone formation using inhibitors of glycogen synthase kinase-3β” (Roche Palo Alto LLC, priority 2002, dated 2009).
Like-named read-outs stand apart in the source and are kept apart here. Blank lines part the entries; values can stand above or below the compound they belong to.

Legend:
[1] = test system: Ovalbumin-sensitized Brown-Norway rats; experiment: Study GSK8 - bone formation in rats treated with Compound II-3; assay type: in vivo, rat; conditions: twice daily oral gavage Days 6-8 and 13-23, liposome formulation
Experimental: Ovalbumin-sensitized Brown-Norway rats were used. They were sensitized i.p. with 100 μg of OA (ovalbumin) in 0.2 ml alum once every week for three weeks (Day 0, 7 and 14). Seven days after the final sensitization (Day 21), rats were challenged with 1% OA for 45 minutes and euthanized 72 hrs later (day 24). Compound II-3 was given twice daily by oral gavage on Days 6-8 and Days 13-23. Compound was prepared as a liposome formulation—8 mg/ml liposome solution in a liposome composition of 1.44 grams of compound and 54 grams of L-alpha-phosphatidylcholine in 160 ml of sterile water for injection.
Femur samples were decalcified in 10% formic acid, embedded in paraffin, sectioned at five micron thickness and stained with hematoxylin and eosin.

[2] = target: T1, truncated form of recombinant rabbit GSK-3β enzyme (Oryctolagus cuniculus, UniProt G1T8E2); experiment: Inhibition of Glycogen Synthase Kinase-3β in vitro assay; assay type: biochemical
T1 construct: The construct was cloned in pGEX-3X vector; fused on or other part: GST at the N-terminus (pGEX-3X vector, purified on glutathione sepharose 4B)
T1 sequence (G1T8E2 1-432): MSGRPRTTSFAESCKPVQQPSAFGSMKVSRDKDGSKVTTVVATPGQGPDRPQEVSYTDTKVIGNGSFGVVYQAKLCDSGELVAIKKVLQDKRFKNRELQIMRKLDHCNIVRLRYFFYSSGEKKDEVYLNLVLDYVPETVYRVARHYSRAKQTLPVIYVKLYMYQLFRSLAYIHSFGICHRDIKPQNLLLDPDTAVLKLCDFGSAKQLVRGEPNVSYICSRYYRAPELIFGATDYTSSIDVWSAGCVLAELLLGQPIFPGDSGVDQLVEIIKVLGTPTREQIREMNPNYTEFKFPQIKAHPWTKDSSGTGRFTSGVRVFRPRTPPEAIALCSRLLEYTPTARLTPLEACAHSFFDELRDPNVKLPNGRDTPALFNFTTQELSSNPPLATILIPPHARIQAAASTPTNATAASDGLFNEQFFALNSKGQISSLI
Experimental: The in vitro GSK-3β inhibitory activity of compounds of this invention was determined with a truncated form of recombinant rabbit GSK-3β enzyme.
The construct was cloned in pGEX-3X vector according to the procedure described in Wang, Q. M. et al., J. Biol. Chem. 269, 14566-14574 (1994). Ten amino acids at the N-terminus were deleted to obtain constitutively active GSK-3β ((see Murai H. et al., FEBS Lett. 392,153-60, (1996)). GSK-3β was expressed in BL21 DE3 cells. The cells were grown at 37° C. until they reached mid log phase and then induced with isopropyl-beta-(D)-thiogalactopyranoside (final concentration 0.4 mM) at 30° C. for 2 h. The cells were homogenized and the cell extract was loaded on a glutathione sepharose 4B column. GSK-3β was eluted with glutathione buffer (50 mM Tris pH 8 and 10 mM reduced glutathione). The eluate was collected in 3 minute fractions and assayed for GSK-3β content on a 10% SDS PAGE (polyacrylamide gel electrophoresis). Fractions above 20% peak height were pooled, aliquoted, and stored at −80° C. until used.
ATP (1 μCi), and 2 μl of compounds of this invention in DMSO (various concentrations). 15 μl of GSK-3β (various concentrations) was added and the reaction mixture was incubated at 30° C. for 1 h. The reaction was stopped by transferring 25 μl of the reaction mixture to a phosphocellulose plate containing 130 μl of 1.85% phosphoric acid. The free radionucleotides in the membrane were washed off under vacuum with 1.85% phosphoric acid (5 times). After the last wash, the plate was transferred to an adoptor plate and 50 μl of scintillation cocktail (Microscint-20, Packard, cat. #20-133) was added to each well and the amount of radioactivity was counted in a top counter.

[3] = test system: osteopenic rat model; experiment: Bone anabolism in the rat (osteopenic rat model; bone mineral density, serum and urine calcium); assay type: in vivo
Experimental: . Three month old rats are ovariectomized (Ovx) and administered either bovine parathyroid hormone (Amino Acids^1-34) (bPTH in Table) or one of the compounds of the present invention once a day by mouth starting at least 4 weeks post-ovariectomy and continuing until final sacrifice after 3 weeks of daily treatment. Control groups, both sham (rats that were not ovariectomized) and Ovx, received vehicle only. Bovine parathyroid hormone, bPTH, was tested at 40 ug/kg (optimal dose) as an internal positive control for anabolic activity. […] Blood and urine samples were collected at 2-3 weeks after initiation of treatment and the amount of calcium in the serum and urine was determined.
The bone mineral density of the right femur was determined using the High Resolution Software on a QDR-4500W Bone Densitometer™ (Hologic, Waltham, Mass.). The animals were scanned by placing them on a plexiglass block in a supine position such that the right leg was perpendicular to the main body and the tibia was perpendicular to the femur. The increase in the bone mineral density and the amount of calcium in the urine and the serum for the compounds are given in the table below.

[4] = test system: Male Wistar rats; experiment: Study MT021 - bone formation in rats with Compound II-9; assay type: in vivo, rat
Experimental: Compound was formulated as a solution in 10% w/v Solutol. Male Wistar rats were dosed by oral gavage, once per day for 14 days at 25, 75 or 150 mg/kg/day and compared to vehicle control (10% Solutol, 10 ml/kg/day). Complete necroscopies were done and the tissues preserved in 10% formalin. Femur, sternum and vertabra were processed and analyzed as described in Example 3.

[5] = Ovx rats, 0.04 mg/kg/day, Compound X study
[6] = Ovx rats, 0.04 mg/kg/day, III-2 Ovx study
[7] = Sham (intact) rats, 0.04 mg/kg/day
[8] = Ovx rats, 30 mg/kg/day by mouth
[9] = Sham (intact) rats, 30 mg/kg/day by mouth

Compound: bPTH: bovine parathyroid hormone (Amino Acids 1-34), internal positive control for anabolic activity
LUMBAR SPINE % 3 wk BMD Change [3, 5]: 8.6 ± 1.8%
WHOLE FEMUR % 3 wk BMD Change [3, 5]: 7.0 ± 1.1%
LUMBAR SPINE % 3 wk BMD Change [3, 6]: 12.2 ± 1.5%
WHOLE FEMUR % 3 wk BMD Change [3, 6]: 16.6 ± 0.9%
LUMBAR SPINE % 3 wk BMD Change [3, 7]: 15.7 ± 0.8%
WHOLE FEMUR % 3 wk BMD Change [3, 7]: 11.7 ± 1.0%

Compound: Nc1nc(NCCNc2ncc(-c3ncc[nH]3)c(-c3ccc(Cl)cc3Cl)n2)ccc1[N+](=O)[O-] [Compound X, N^6-{2-[4-(2,4-dichloro-phenyl)-5-(1H-imidazol-2-yl)-pyrimidin-2-ylamino]-ethyl}-3-nitro-pyridine-2,6-diamine, reference compound]
IC50 ([2]; GSK-3β assay of Biological Example 1): 1.7 nM

Compound: Cl.Cn1cc(C2=C(c3cccc(NCC(O)CO)c3)C(=O)NC2=O)c2cc(F)ccc21 (stereo not shown) [III-2]
LUMBAR SPINE % 3 wk BMD Change [3, 8]: 7.9 ± 1.8%
WHOLE FEMUR % 3 wk BMD Change [3, 8]: 11.6 ± 0.9%
LUMBAR SPINE % 3 wk BMD Change [3, 9]: 9.5 ± 1.8%
WHOLE FEMUR % 3 wk BMD Change [3, 9]: 13.1 ± 1.3%

Compound: Cn1cc(C2=C(c3ccccc3OCC(O)CO)C(=O)NC2=O)c2ccccc21 (stereo not shown) [Compound I-1]
melting point: 245 to 247.1 °C

Compound: Cn1cc(C2=C(c3cccc(NCCCO[Si](C)(C)C(C)(C)C)c3)C(=O)NC2=O)c2ccccc21
melting point: 58 to 65 °C

Further lines, with some results ahead:

melting point: 177.7 to 178 °C
IC50 [2]: 3.2 nM
Compound: Cn1cc(C2=C(c3cccc(OC[C@H](O)CO)c3)C(=O)NC2=O)c2ccccc21 [II-3]
cancellous bone under the growth plate of the femur (light microscopy) [1]: moderate increases in cancellous bone

melting point: 197.7 to 199 °C
Compound: Cn1cc(C2=C(c3cccc(OCCN4CCOCC4)c3)C(=O)NC2=O)c2ccccc21 [II-4]

melting point: 160 to 163.5 °C
IC50 [2]: 1.5 nM
Compound: Cl.Cn1cc(C2=C(c3cccc(NCC(O)CO)c3)C(=O)NC2=O)c2ccccc21 (stereo not shown) [II-9]
animals with increased cancellous bone ([4]; 25 mg/kg group, oral, 14 days): only one animal
rats with increased new bone formation ([4]; 150 mg/kg group, oral, 14 days): Five out of six
cancellous bone (femur, sternum, vertebra) ([4]; oral gavage once per day for 14 days at 25, 75 or 150 mg/kg/day): Increased cancellous bone was observed in all groups
